# From ChEMBL document CHEMBL3217422, “Design of membrane targeting tobramycin-based cationic amphiphiles with reduced hemolytic activity” (Medchemcomm, 2013)
# How the values were obtained:
# [1] = Induction of hemolysis in rat RBC assessed as hemoglobin release at 128 ug/ml after 1 hr by microplate reader analysis; assay type: cell-based, Erythrocyte; settings: red blood cells, read-out: Activity
# [2] = Induction of hemolysis in rat RBC assessed as hemoglobin release at 64 ug/ml after 1 hr by microplate reader analysis; assay type: cell-based, Erythrocyte; settings: red blood cells, read-out: Activity
# [3] = system: Staphylococcus epidermidis; experiment: Antibacterial activity against Staphylococcus epidermidis ATCC 35984 assessed as biofilm growth inhibition after 24 hrs by double dilution method; assay type: functional
# Streptococcus mutans [4] = experiment: Antibacterial activity against Streptococcus mutans UA159 assessed as biofilm growth inhibition after 24 hrs by double dilution method; assay type: functional
# Shigella sonnei [5] = experiment: Antibacterial activity against O-antigen negative Shigella sonnei clinical isolate 6831 assessed as growth inhibition after 24 hrs by double dilution method; assay type: functional; settings: isolate 6831, 24 h
# Shigella sonnei [6] = experiment: Antibacterial activity against O-antigen positive Shigella sonnei clinical isolate 6831 assessed as growth inhibition after 24 hrs by double dilution method; assay type: functional; settings: isolate 6831, 24 h
# Pseudomonas aeruginosa = experiment: Antibacterial activity against Pseudomonas aeruginosa ATCC 33347 assessed as growth inhibition after 24 hrs by double dilution method; assay type: functional; settings: ATCC 33347, 24 h
# [7] = system: Staphylococcus epidermidis; experiment: Antibacterial activity against Staphylococcus epidermidis ATCC 12228 assessed as growth inhibition after 24 hrs by double dilution method; assay type: functional; settings: ATCC 12228, 24 h
# [8] = system: Staphylococcus epidermidis; experiment: Antibacterial activity against Staphylococcus epidermidis ATCC 35984 assessed as growth inhibition after 24 hrs by double dilution method; assay type: functional; settings: ATCC 35984, 24 h
# Staphylococcus aureus [9] = experiment: Antibacterial activity against Staphylococcus aureus ATCC 9144 assessed as growth inhibition after 24 hrs by double dilution method; assay type: functional; settings: ATCC 9144, 24 h
# Enterococcus faecalis = experiment: Antibacterial activity against Enterococcus faecalis ATCC 29212 assessed as growth inhibition after 24 hrs by double dilution method; assay type: functional; settings: ATCC 29212, 24 h
# Enterococcus = experiment: Antibacterial activity against vancomycin-resistant Enterococcus assessed as growth inhibition after 24 hrs by double dilution method; assay type: functional
# Streptococcus mutans [10] = experiment: Antibacterial activity against Streptococcus mutans UA159 assessed as growth inhibition after 24 hrs by double dilution method; assay type: functional; settings: UA159, 24 h
# Staphylococcus aureus [11] = experiment: Antibacterial activity against Methicillin-resistant Staphylococcus aureus assessed as growth inhibition after 24 hrs by double dilution method; assay type: functional
# [12] = Antibacterial activity against Streptococcus pyogenes serotype M12 strain MGAS9429 assessed as growth inhibition after 24 hrs by double dilution method; assay type: functional; settings: MGAS9429, 24 h
# [13] = Induction of hemolysis in rat RBC assessed as hemoglobin release at 32 ug/ml after 1 hr by microplate reader analysis; assay type: cell-based, Erythrocyte; settings: red blood cells, read-out: Activity
# [14] = system: Streptococcus pyogenes serotype M12; experiment: Ratio of tobramycin MIC to compound MIC against Streptococcus pyogenes serotype M12 strain MGAS9429 after 24 hrs by double dilution method; assay type: functional
# [15] = Induction of hemolysis in rat RBC assessed as hemoglobin release at 32 to 128 ug/ml after 1 hr by microplate reader analysis; assay type: cell-based; settings: erythrocyte
smiles,measurement,setting,value
CCCCCCCCCCCCC(=O)NC[C@H]1O[C@H](O[C@@H]2[C@@H](O)[C@H](O[C@H]3O[C@H](CN)[C@@H](O)C[C@H]3N)[C@@H](N)C[C@H]2N)[C@H](O)[C@@H](N)[C@@H]1O,"hemolysis at 1 h, 128 ug/ml",[1],10.2%
same,"hemolysis at 1 h, 64 ug/ml",[2],0%
same,MBIC,[3],8 µg/mL
same,MBIC,Streptococcus mutans [4],8 µg/mL
same,MIC,Shigella sonnei [5],128 µg/mL
same,MIC,Shigella sonnei [6],128 µg/mL
same,MIC,Pseudomonas aeruginosa,32 µg/mL
same,MIC,[7],8 µg/mL
same,MIC,[8],8 µg/mL
same,MIC,Staphylococcus aureus [9],16 µg/mL
same,MIC,Enterococcus faecalis,128 µg/mL
same,MIC,Enterococcus,64 µg/mL
same,MIC,Streptococcus mutans [10],4 µg/mL
same,MIC,Staphylococcus aureus [11],128 µg/mL
same,MIC,[12],16 µg/mL
CCCCCCCCCCCCCCC(=O)NC[C@H]1O[C@H](O[C@@H]2[C@@H](O)[C@H](O[C@H]3O[C@H](CN)[C@@H](O)C[C@H]3N)[C@@H](N)C[C@H]2N)[C@H](O)[C@@H](N)[C@@H]1O,"hemolysis at 1 h, 64 ug/ml",[2],74.4%
same,"hemolysis at 1 h, 32 ug/ml",[13],23%
same,MBIC,[3],8 µg/mL
same,MBIC,Streptococcus mutans [4],4 µg/mL
same,Ratio,[14],16
same,MIC,Shigella sonnei [5],32 µg/mL
same,MIC,Shigella sonnei [6],16 µg/mL
same,MIC,Pseudomonas aeruginosa,128 µg/mL
same,MIC,[7],4 µg/mL
same,MIC,[8],4 µg/mL
same,MIC,Staphylococcus aureus [9],8 µg/mL
same,MIC,Enterococcus faecalis,64 µg/mL
same,MIC,Enterococcus,32 µg/mL
same,MIC,Streptococcus mutans [10],4 µg/mL
same,MIC,Staphylococcus aureus [11],32 µg/mL
same,MIC,[12],4 µg/mL
CCCCCCCCCCCCCCSC[C@H]1O[C@H](O[C@@H]2[C@@H](O)[C@H](O[C@H]3O[C@H](CN)[C@@H](O)C[C@H]3N)[C@@H](N)C[C@H]2N)[C@H](O)[C@@H](N)[C@@H]1O,"hemolysis at 1 h, 64 ug/ml",[2],74.4%
same,"hemolysis at 1 h, 32 ug/ml",[13],23%
same,MBIC,[3],8 µg/mL
same,MBIC,Streptococcus mutans [4],4 µg/mL
same,Ratio,[14],16
same,MIC,Shigella sonnei [5],32 µg/mL
same,MIC,Shigella sonnei [6],16 µg/mL
same,MIC,Pseudomonas aeruginosa,128 µg/mL
same,MIC,[7],4 µg/mL
same,MIC,[8],4 µg/mL
same,MIC,Staphylococcus aureus [9],8 µg/mL
same,MIC,Enterococcus faecalis,64 µg/mL
same,MIC,Enterococcus,16 µg/mL
same,MIC,Streptococcus mutans [10],2 µg/mL
same,MIC,Staphylococcus aureus [11],32 µg/mL
same,MIC,[12],2 µg/mL
CCCCCCCCCCCCCCCCS(=O)(=O)C[C@H]1O[C@H](O[C@@H]2[C@@H](O)[C@H](O[C@H]3O[C@H](CN)[C@@H](O)C[C@H]3N)[C@@H](N)C[C@H]2N)[C@H](O)[C@@H](N)[C@@H]1O,"hemolysis at 1 h, 64 ug/ml",[2],37.9%
same,MIC,Shigella sonnei [5],128 µg/mL
same,MIC,Shigella sonnei [6],32 µg/mL
same,MIC,Pseudomonas aeruginosa,> 128 µg/mL
same,MIC,[7],16 µg/mL
same,MIC,[8],16 µg/mL
same,MIC,Staphylococcus aureus [9],8 µg/mL
same,MIC,Enterococcus faecalis,64 µg/mL
same,MIC,Enterococcus,32 µg/mL
same,MIC,Streptococcus mutans [10],8 µg/mL
same,MIC,Staphylococcus aureus [11],32 µg/mL
same,MIC,[12],8 µg/mL
CCCCCCCCCCCCCCCCc1cn(C[C@H]2O[C@H](O[C@@H]3[C@@H](O)[C@H](O[C@H]4O[C@H](CN)[C@@H](O)C[C@H]4N)[C@@H](N)C[C@H]3N)[C@H](O)[C@@H](N)[C@@H]2O)nn1,"hemolysis at 1 h, 64 ug/ml",[2],37.9%
same,MIC,Shigella sonnei [5],64 µg/mL
same,MIC,Shigella sonnei [6],128 µg/mL
same,MIC,Pseudomonas aeruginosa,> 128 µg/mL
same,MIC,[7],4 µg/mL
same,MIC,[8],8 µg/mL
same,MIC,Staphylococcus aureus [9],16 µg/mL
same,MIC,Enterococcus faecalis,128 µg/mL
same,MIC,Enterococcus,16 µg/mL
same,MIC,Streptococcus mutans [10],8 µg/mL
same,MIC,Staphylococcus aureus [11],32 µg/mL
same,MIC,[12],16 µg/mL
NC[C@H]1O[C@H](O[C@H]2[C@H](O)[C@@H](O[C@H]3O[C@H](CO)[C@@H](O)[C@H](N)[C@H]3O)[C@H](N)C[C@@H]2N)[C@H](N)C[C@@H]1O [TOBRAMYCIN],MBIC,[3],128 µg/mL
same,MBIC,Streptococcus mutans [4],64 µg/mL
same,MIC,Shigella sonnei [5],32 µg/mL
same,MIC,Shigella sonnei [6],16 µg/mL
same,MIC,Pseudomonas aeruginosa,> 128 µg/mL
same,MIC,[7],< 1 µg/mL
same,MIC,[8],128 µg/mL
same,MIC,Staphylococcus aureus [9],16 µg/mL
same,MIC,Enterococcus faecalis,> 128 µg/mL
same,MIC,Enterococcus,> 128 µg/mL
same,MIC,Streptococcus mutans [10],128 µg/mL
same,MIC,Staphylococcus aureus [11],> 128 µg/mL
same,MIC,[12],64 µg/mL
CCCCCCCCCCCCS(=O)(=O)C[C@H]1O[C@H](O[C@@H]2[C@@H](O)[C@H](O[C@H]3O[C@H](CN)[C@@H](O)C[C@H]3N)[C@@H](N)C[C@H]2N)[C@H](O)[C@@H](N)[C@@H]1O,Activity,[15],Toxic
same,MBIC,[3],32 µg/mL
same,MBIC,Streptococcus mutans [4],16 µg/mL
same,MIC,Shigella sonnei [5],> 128 µg/mL
same,MIC,Shigella sonnei [6],> 128 µg/mL
same,MIC,Pseudomonas aeruginosa,> 128 µg/mL
same,MIC,[7],128 µg/mL
same,MIC,[8],64 µg/mL
same,MIC,Staphylococcus aureus [9],64 µg/mL
same,MIC,Enterococcus faecalis,> 128 µg/mL
same,MIC,Enterococcus,64 µg/mL
same,MIC,Streptococcus mutans [10],16 µg/mL
same,MIC,Staphylococcus aureus [11],> 128 µg/mL
same,MIC,[12],32 µg/mL
